Read-outs that look alike come from different tables or passages of the source.
Experiments:
β-catenin/Tcf4 PPI [1] = target: T1, β-catenin/Tcf4 PPI (Homo sapiens, UniProt P35222); experiment: biochemical
T1 sequence (P35222 138-686): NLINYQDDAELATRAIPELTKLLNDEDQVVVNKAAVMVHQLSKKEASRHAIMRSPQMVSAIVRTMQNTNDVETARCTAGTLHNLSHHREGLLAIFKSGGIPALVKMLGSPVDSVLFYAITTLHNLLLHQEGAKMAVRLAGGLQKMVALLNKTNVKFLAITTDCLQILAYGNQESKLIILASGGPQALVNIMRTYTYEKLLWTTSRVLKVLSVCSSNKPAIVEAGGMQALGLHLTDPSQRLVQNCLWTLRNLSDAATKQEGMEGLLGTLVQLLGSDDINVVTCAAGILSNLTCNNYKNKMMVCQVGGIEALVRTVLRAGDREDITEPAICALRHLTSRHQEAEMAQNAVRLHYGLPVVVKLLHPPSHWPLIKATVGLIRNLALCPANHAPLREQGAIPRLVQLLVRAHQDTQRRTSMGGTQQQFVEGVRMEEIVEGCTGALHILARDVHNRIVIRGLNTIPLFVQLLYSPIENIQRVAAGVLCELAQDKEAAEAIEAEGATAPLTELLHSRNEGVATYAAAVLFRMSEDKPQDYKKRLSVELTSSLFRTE
From the text: (§3) After β-catenin and fluorescein-Tcf4 form a protein-protein complex, the fluorophore is attached to a high-molecular-weight protein complex (≥60 kDa) and has a low rotational speed when it is excited by plane-polarized light. […] When an inhibitor completely disrupts the β-catenin/fluorescein-Tcf4 PPI, the fluorophore is only attached to Tcf4 (≤6 kDa), and the emitted light after excitation will be largely depolarized due to a high rotational speed of the fluorophore. AlphaScreen is a bead-based assay. […] On laser excitation at 680 nm, the photo sensitizers inside the donor beads convert ambient oxygen to a singlet oxygen state. Only when the donor and acceptor beads are brought within 200 nm can the singlet oxygen molecules diffuse to the acceptor beads, resulting in extensive emission at 570 nm.

β-catenin/Tcf4 PPI [2] = target: T1, β-catenin/Tcf4 PPI; settings: read-out: Ki ± SD FP; Table 8, resynthesized 18 and derivatives
From the text: as §3

[3] = target: T2, β-catenin/Tcf PPI in SW480 cells (Homo sapiens, UniProt P35222); experiment: Coimmunoprecipitation assay; format: cell-based; settings: SW480, 24 h
T2 construct: endogenous in cells; host or cells: SW480
T2 sequence (P35222 2-781 limits assumed): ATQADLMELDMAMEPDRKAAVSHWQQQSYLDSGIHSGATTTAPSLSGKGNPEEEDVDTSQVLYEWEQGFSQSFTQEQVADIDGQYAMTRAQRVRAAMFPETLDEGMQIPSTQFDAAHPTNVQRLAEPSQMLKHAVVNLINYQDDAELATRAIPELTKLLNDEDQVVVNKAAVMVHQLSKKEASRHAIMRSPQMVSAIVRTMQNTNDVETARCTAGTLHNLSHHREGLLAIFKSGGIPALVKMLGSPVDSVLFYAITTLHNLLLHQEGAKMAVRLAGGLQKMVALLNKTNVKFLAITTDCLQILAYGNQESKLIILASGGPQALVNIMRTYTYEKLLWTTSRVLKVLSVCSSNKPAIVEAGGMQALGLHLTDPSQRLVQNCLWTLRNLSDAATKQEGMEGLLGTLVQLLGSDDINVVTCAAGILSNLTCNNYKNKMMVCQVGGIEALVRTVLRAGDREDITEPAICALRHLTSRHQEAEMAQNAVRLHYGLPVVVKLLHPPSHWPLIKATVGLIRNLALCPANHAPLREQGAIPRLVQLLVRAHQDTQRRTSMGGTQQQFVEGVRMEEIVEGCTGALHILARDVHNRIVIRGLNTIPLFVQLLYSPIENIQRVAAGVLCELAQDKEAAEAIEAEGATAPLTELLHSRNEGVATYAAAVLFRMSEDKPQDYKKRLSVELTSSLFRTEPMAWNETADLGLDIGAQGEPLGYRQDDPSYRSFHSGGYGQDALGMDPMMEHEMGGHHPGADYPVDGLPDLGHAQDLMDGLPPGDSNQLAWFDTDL
Experimental: SW480 cells at 1×10^6/mL were treated with different concentrations of 18 for 24 h. Cells were lysed in buffer containing 50 mM Tris, pH 7.4, 150 mM NaCl, 1% Nonidet P-40, 2 mM EDTA, and protease inhibitors. The lysates were preabsorbed to A/G plus agarose (sc-2003, Santa Cruz Biotechnology, Inc.) at 4° C. for 1 h. Preadsorbed lysates were incubated with a specific primary antibody overnight at 4° C. A/G plus agarose was then added to the lysates mixture and incubated for 3 h. The beads were washed 5 times with the lysis buffer at 4° C. The bound protein was eluted by boiling in the SDS sample buffer and loaded onto 8% SDS polyacrylamide gel for electrophoretic analysis. Separated proteins were transferred onto nitrocellulose membranes for immunoblot analysis. The primary antibodies were against fl-catenin (610153, BD Biosciences) and Tcf4 (05-511, Millipore). IRDye 680LT goat anti-mouse IgG (827-11080, LiCOR) was used as the secondary antibody. The images were detected by the Odyssey Infrared Imaging System (LiCOR). Experiments were performed in duplicate.

[4] = test system: cyclin D1, c-myc and β-catenin protein expression in SW480 cells; experiment: Western blot analysis; format: cell-based, human; settings: SW480, 24 h
Experimental: SW480 cells at 1×10^6 cells/mL were treated with different concentrations of 18 for 24 h. Cell were lysed in a buffer containing 50 mM Tris (pH 7.4), 150 mM NaCl, 1% Nonidet P-40, 0.5% sodium deoxycholate, 0.1% SDS, and protease inhibitors. After centrifugation at 12,000 rpm for 20 min at 4° C., the supernatant was loaded onto an 8% SDS polyacrylamide gel for electrophoretic analysis. Separated proteins were transferred onto nitrocellulose membranes for immunoblot analysis. The antibodies against c-myc (D84C12, Cell Signaling), cyclin D1 (sc-853, Santa Cruz Biotechnology, Inc.), and β-tubulin (sc-55529, Santa Cruz Biotechnology, Inc) were used. IRDye 680LT goat anti-mouse IgG (827-11080, LiCOR) or IRDye 800CW goat anti-rabbit IgG (827-08365, LiCOR) was used as the secondary antibody. The images were detected by the Odyssey Infrared Imaging System (LiCOR). The Western blot bands were quantified by LI-COR Image Studio Lite 4.0. Experiments were performed in duplicate.

[5] = test system: FOPFlash luciferase (reporter with eight mutant Tcf binding sites); format: cell-based, human
Experimental: (§1) FuGENE 6 (E2962, Promega) in a 96-well plate format was used for the transfection of HEK293 and SW480 cells according to the manufacturer's instructions. […] SW480 cells were co-transfected with 60 ng of the TOPFlash or FOPFlash reporter gene and 40 ng pCMV-RL normalization reporter. Cells were cultured in DMEM and 10% fatal bovine serum at 37° C. for 24 h, and different concentrations of inhibitors were then added. After 24 h, the luciferase reporter activity was measured using the Dual-Glo system (E2940, Promega). Normalized luciferase activity in response to the treatment with the inhibitors was compared with that obtained from the cells treated with DMSO. Experiments were performed in triplicate.

[6] = test system: Wnt/β-catenin target genes in SW480 cells
Experimental: Total RNAs were extracted with TRIzol (Ser. […] The threshold cycle (CT) values were normalized to that of internal reference GAPDH. The primer pairs for human GAPDH were forward: [NT] and reverse: [NT]; for human HPRT forward: [NT] and reverse: [NT]; for human AXIN2 forward: [NT] and reverse: [NT]; for human c-myc forward: [NT] and reverse: [NT]; and for human cyclin D1 forward: [NT] and reverse: [NT]. Experiments were performed in triplicate.

β-catenin/Tcf4 PPI [7] = target: T1, β-catenin/Tcf4 PPI; settings: Table 3, known inhibitors, footnotes a, b; read-out: Ki + SD FP; cited from earlier work
β-catenin/E-cadherin = target: T3, β-catenin/E-cadherin (Homo sapiens, UniProt P35222); settings: FP selectivity assay, known inhibitors, footnotes a, b; read-out: Ki ± SD β-catenin/E-cadherin; cited from earlier work
T3 construct: Wild-type β-catenin and its mutants (residues 138-686) were cloned; 6xHis; made in house; host or cells: E. coli BL21 DE3
T3 sequence (P35222 138-686): T1 sequence (P35222 138-686)

β-catenin/Tcf4 = target: T4, β-catenin/Tcf4 (Homo sapiens, UniProt P35222); settings: FP selectivity assay, known inhibitors, footnotes a, b; read-out: Ki ± SD β-catenin/Tcf4; cited from earlier work
T4 sequence (P35222 138-686): T1 sequence (P35222 138-686)

β-catenin/APC-R3 = target: T5, β-catenin/APC-R3 (Homo sapiens, UniProt P35222); settings: FP selectivity assay, known inhibitors, footnotes a, b; read-out: Ki ± SD β-catenin/APC-R3; cited from earlier work
T5 construct: Wild-type β-catenin and its mutants (residues 138-686) were cloned; 6xHis; made in house; host or cells: E. coli BL21 DE3
T5 sequence (P35222 138-686): T1 sequence (P35222 138-686)

HT29 cells = experiment: MTs cell viability assay, HT29; format: cell-based; settings: Homo sapiens, HT-29, 72 h, read-out: IC50 ± SD HT29
Experimental: (§2) Colorectal cancer cell lines, SW480, HT29, an HCT116, and human normal cell line HEK293 were seeded in 96-well plates at 4×10^3 cells/well, maintained overnight at 37° C., and incubated with the tested compounds at various concentrations. Cell viability was monitored after 72 h using a freshly prepared mixture of 1 part phenazine methosulfate (PMS, Sigma) solution (0.92 mg/mL) and 19 parts 3-(4,5-dimethylthiazol-2-yl)-5-(3-carboxymethoxyphenyl)-2-(4-sulfophenyl)-2H-tetrazolium (MTs, Promega) solution (2 mg/mL). Cells were incubated in 10 μL of this solution at 37° C. for 3 h, and A490 was measured. […] Experiments were performed in triplicate.

SW480 cells = experiment: MTs cell viability assay, SW480; format: cell-based, human; settings: Homo sapiens, SW480; MTs cell viability, 72 h; read-out: IC50 ± SD SW480
Experimental: as §2

HCT116 cells = experiment: MTs cell viability assay, HCT116; format: cell-based, human; settings: Homo sapiens, HCT-116; MTs cell viability, 72 h; read-out: IC50 ± SD HCT116
Experimental: as §2

[8] = test system: canonical Wnt signaling in colorectal cancer SW480 cells; experiment: TOPFlash luciferase reporter assay, SW480; format: cell-based; settings: Homo sapiens, SW480, 24 h, read-out: TOPFlash IC50 ± SD SW480
Experimental: as §1

In the case of `N#CCn1c2ccccc2c2nc3nonc3nc21` [Compound 34, 2-(5H-[1,2,5]Oxadiazolo[3′,4′:5,6]Pyrazino[2,3-B]Indol-5-yl)Acetonitrile], the Ki (β-catenin/Tcf4 PPI [1]) is reported as over 130 µM and the Ki (β-catenin/Tcf4 PPI [2]) is reported as 240 ± 14 µM.

In the case of `Nc1nonc1C(=O)N/N=C1/c2ccccc2-c2nc3nonc3nc21` [Compound 18, (Z)-4-Amino-N′-(9H-Indeno[1,2-B][1,2,5]Oxadiazolo[3,4-E]Pyrazin-9-ylidene)-1,2,5-Oxadiazole-3-Carbohydrazide], the “β-catenin/Tcf PPI in a cellular context” value [3] is reported as “inhibits the β-catenin/Tcf PPI in a dose-dependent manner”, the “expression level of β-catenin” value [4] is reported as “did not reduce” and the “expression of proteins cyclin D1 and c-myc” value [4] is reported as “significantly reduced”. For the same compound, the “concentrations at which FOPFlash luciferase activity was inhibited” value ([5]; HEK293 and SW480 (FIG. 7), off-target effects) was at least 5 µM, the mRNA expression inhibited ([6]; AXIN2, cyclin D1, c-myc, dose of 2 μM, SW480, 24 h) was “More than 50%” and the “expression of house-keeping gene HPRT” value ([6]; SW480) was “did not affect”. The “expression of AXIN2, cyclin D1, and c-myc (mRNA)” value ([6]; SW480, dose-dependent) was “down-regulated”.

For `COC1=C(CC(C)OC(=O)Oc2ccc(O)cc2)C2c3c(c(O)cc(OC)c3-c3c(OC)cc(O)c4c3C2C(CC(C)OC(=O)c2ccccc2)=C(OC)C4=O)C1=O` (stereo not drawn) [Compound 1], the Ki (β-catenin/Tcf4 PPI [7]) is given as 18 ± 2.1 µM, the Ki (β-catenin/E-cadherin) is given as 38 ± 1.6 µM and the Ki (β-catenin/Tcf4) is given as 77 ± 9.3 µM. The Ki (β-catenin/APC-R3) was 110 ± 0.58 µM.

For `COc1ccc(/C=C2\SC(=S)N(CCCC(=O)O)C2=O)cc1OC` [Compound 9, reference compound], the IC50 (HT29 cells) was 290 ± 2.4 µM, the IC50 (SW480 cells) was 240 ± 2.5 µM and the IC50 (HCT116 cells) was 180 ± 2.9 µM. The “FOPFlash luciferase reporter activity” value ([5]; reference inhibitors) was “inhibited” and the IC50 [8] was 4 ± 0.39 µM.
